Test results reported in patent US8367687B2, “Pyrazole derivatives” (Novartis AG, priority 2007, dated 2013).
Like-named read-outs stand apart in the source and are kept apart here.

Key:
hCDK1/B = hCDK1/B (Homo sapiens, UniProt P06493); test: hCDK1/B; format: biochemical
CDK4 = CDK4 (Homo sapiens, UniProt P11802); test: CDK4 HTRF; format: biochemical
CDK2 cyA = CDK2 cyA (Homo sapiens, UniProt P24941); test: CDK2 cyA IMAP; format: biochemical
p-pRb/S780 = p-pRb/S780 ELISA Cellular Assay (CDK4 ELISA assay); format: cell-based; conditions: cells treated for 24 hrs
Procedure: Biological Activity p-pRb/S780 ELISA Cellular Assay
Maxisorp plates (Nunc 442404) are coated with 50 ul of 1 ug/mL total phospholated Retinoblast Protein (pRb) antibody (4H1 Cell Signaling 9309L) diluted in DPBS (Phosphate Buffered Saline) overnight at 4° C. The next day plates are blocked with Superblock in TBST (Pierce 37535) for one hour to overnight—changing block once during that time. Cells are plated at 50-60% confluency in a 96 well plate (Corning 3585) in 100 uL complete media (media containing fetal bovine serum (Gibco 1600-044), 2 mM L-Glutamine (Gibco 25030), and 1% Penicillin/Streptomycin (Gibco 15140-122) and grown overnight in a humidified chamber at 37° C. and 5% CO2. Compounds (in DMSO) are diluted in media to create a 7 point dilution series of compound with concentrations ranging from 110 uM to 0.027 uM. 10 ul of the diluted compounds are added to the cells, with final concentrations on cells ranging from 10 uM to 0.002 uM. Cells are treated for 24 hrs in a humidified chamber at 37° C. and 5% CO2. Following compound incubation, cells are lysed with 40 uL/well lysis buffer (50 mM Tris-HCL pH 7.5 (Invitrogen 15567-027), 120 mM NaCl (Promega V4221), 1 mM EDTA (Gibco 15575-038), 6 mM EGTA (Fisher 02783-100), 1% Nonidet P40 (Fluka R02771). Plates are placed on Titerplate shaker (Labline model 4625) for 5 minutes at 4° C. to lyse cells. After lysis, 10 ul of cell lysate and 50 ul 1×PBS/10% Superblock (Gibco 10010 and Pierce 37535) is added to each well of the precoated and blocked Maxisorp plate and allowed to bind at room temperature for 2 hours on Oribtron Rotator II (Boekel Industries Model 260250). Plates are then washed 3× with 1×TBST (Teknova T9201) using Biotek platewasher equipped with a Biostack. The final wash is not aspirated. The final wash is removed by flicking off and tapping plate on paper towels. ppRbS780 antibody (Cell Signaling 9307L) is diluted 1:1000 in 1×PBS/10% Superblock (Gibco 10010 and Pierce 37535) and 50 ul is added to each well. Plates are then incubated 1 hour on Oribtron Rotator II (Boekel Industries Model 260250). Plates are then washed as previously described. Goat anti-rabbit HRP (Promega W401B) is diluted 1:2500 1×PBS/10% Superblock (Gibco 10010 and Pierce 37535) and 50 ul is added to each well. Plates are then incubated 30 minutes on Oribtron Rotator II. Plates are then washed as previously described. 50 uL Ultra TMB ELISA (Pierce 34028) is then added to each well. Plates are incubated 5-20 minutes until blue color develops. 50 ul 2M Sulfuric acid (Mallinckrodt 2468-46) is then added to each well to stop the reaction. Absorbance at 450 nm for each plate is read on Spectramax Plus (Molecular Devices).

[1] = Table 1, read-out: CDK2 cyA IMAP
[2] = Table 1, read-out: CDK4 ELISA assay IC50
[3] = Table 2, read-out: CDK4 HTRF/ IC50
[4] = Table 2, read-out: CDK2cyA IMAP/ IC50
[5] = Table 2, read-out: p_pRb Cap EL/ IC50_ppRbinh

CDK4, sequence (P11802 whole entry): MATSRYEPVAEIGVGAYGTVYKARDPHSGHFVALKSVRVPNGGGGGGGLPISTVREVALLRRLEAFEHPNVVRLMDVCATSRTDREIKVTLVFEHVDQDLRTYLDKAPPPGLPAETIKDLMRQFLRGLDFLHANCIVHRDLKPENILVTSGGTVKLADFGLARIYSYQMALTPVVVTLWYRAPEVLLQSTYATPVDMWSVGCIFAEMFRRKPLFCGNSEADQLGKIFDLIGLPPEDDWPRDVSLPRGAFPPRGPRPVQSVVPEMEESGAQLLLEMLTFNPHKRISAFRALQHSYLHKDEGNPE
CDK4, sequence (P24385 whole entry partner): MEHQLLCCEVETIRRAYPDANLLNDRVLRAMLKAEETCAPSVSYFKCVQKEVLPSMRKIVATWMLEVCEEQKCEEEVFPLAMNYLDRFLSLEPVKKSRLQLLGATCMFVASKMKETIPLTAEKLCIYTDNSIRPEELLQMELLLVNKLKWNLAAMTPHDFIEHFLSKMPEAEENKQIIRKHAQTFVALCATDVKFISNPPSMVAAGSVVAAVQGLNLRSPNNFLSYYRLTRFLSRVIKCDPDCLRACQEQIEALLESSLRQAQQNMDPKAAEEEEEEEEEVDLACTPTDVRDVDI
hCDK1/B, sequence (P06493 whole entry): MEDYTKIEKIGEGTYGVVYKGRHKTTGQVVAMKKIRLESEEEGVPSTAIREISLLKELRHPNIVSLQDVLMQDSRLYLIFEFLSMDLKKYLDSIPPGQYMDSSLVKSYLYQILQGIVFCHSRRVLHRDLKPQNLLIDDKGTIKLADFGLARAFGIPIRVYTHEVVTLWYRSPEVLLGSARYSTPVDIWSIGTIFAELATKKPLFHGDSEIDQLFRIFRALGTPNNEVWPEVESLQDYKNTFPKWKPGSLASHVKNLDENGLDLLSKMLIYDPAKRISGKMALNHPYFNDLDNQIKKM
hCDK1/B, sequence (P14635 whole entry partner): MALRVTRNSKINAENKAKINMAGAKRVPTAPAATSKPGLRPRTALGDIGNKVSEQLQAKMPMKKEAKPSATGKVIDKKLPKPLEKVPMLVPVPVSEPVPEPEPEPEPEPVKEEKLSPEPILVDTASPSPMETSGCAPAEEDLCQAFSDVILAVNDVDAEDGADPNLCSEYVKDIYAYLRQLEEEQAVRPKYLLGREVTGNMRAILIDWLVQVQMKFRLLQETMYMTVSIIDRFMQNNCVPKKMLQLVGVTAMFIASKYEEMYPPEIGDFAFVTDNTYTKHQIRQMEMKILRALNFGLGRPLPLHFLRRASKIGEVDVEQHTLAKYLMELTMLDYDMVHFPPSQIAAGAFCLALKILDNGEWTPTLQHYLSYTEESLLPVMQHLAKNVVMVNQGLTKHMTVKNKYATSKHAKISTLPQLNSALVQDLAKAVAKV

Row | SMILES | IC50 (hCDK1/B; Table 1) [µM] | IC50 (CDK4; Table 1, read-out: CDK4 HTRF) [µM] | IC50 (CDK2 cyA; [1]) [µM] | IC50 (p-pRb/S780; [2]) [µM] | IC50 (hCDK1/B; Table 2) [µM] | IC50 (CDK4; [3]) [µM] | IC50 (CDK2 cyA; [4]) [µM] | IC50 (p-pRb/S780; [5]) [µM]
1 | CC(C)c1[nH]ncc1-c1ccnc(NCc2ccc3c(c2)OCO3)c1 [Example 35] | < 5 | < 5 | < 5 | < 15 | – | – | – | –
2 | CC(=O)NCCNc1nccc(-c2c[nH]nc2C)n1 [Example 123] | – | – | – | – | < 15 | < 5 | < 15 | < 15
3 | CCC(C)Nc1nccc(-c2c[nH]nc2C)n1 (stereo not shown) [Example 110] | – | – | – | – | < 10 | < 1 | < 5 | < 15
4 | Cc1n[nH]cc1-c1ccnc(NCCCN2CCCC2=O)n1 [Example 131] | – | – | – | – | ≥ 15 | < 15 | ≥ 15 | < 15
5 | CC(C)c1[nH]ncc1-c1ccnc(NCC2CCNCC2)c1 [Example 47] | ≥ 15 | < 10 | ≥ 15 | < 15 | – | – | – | –
6 | CC(C)c1n[nH]cc1-c1ccnc(NC2CCc3cc(F)ccc32)n1 (stereo not shown) [Example 189] | – | – | – | – | < 0.5 | < 0.1 | < 0.5 | < 1
7 | CC(C)c1n[nH]cc1-c1ccnc(N[C@@H]2CCCc3ccccc32)n1 [Example 177] | – | – | – | – | < 5 | < 0.05 | < 0.5 | < 1
8 | Cc1n[nH]cc1-c1ccnc(NCC2CCCO2)n1 (stereo not shown) [Example 88] | – | – | – | – | < 15 | < 15 | ≥ 15 | < 15
9 | CC(C)c1[nH]ncc1-c1ccnc(NCCC2CCCN2C)c1 (stereo not shown) [Example 42] | ≥ 15 | < 5 | ≥ 15 | < 15 | – | – | – | –
10 | CC(C)c1[nH]ncc1-c1ccnc(NCCCN2CCOCC2)c1 [Example 36] | ≥ 15 | < 10 | ≥ 15 | < 15 | – | – | – | –
11 | Cc1n[nH]cc1-c1ccnc(NCc2ccco2)n1 [Example 122] | – | – | – | – | ≥ 15 | < 10 | ≥ 15 | < 15
12 | Cc1n[nH]cc1-c1ccnc(NC2CCC2)n1 [Example 101] | – | – | – | – | < 5 | < 1 | < 5 | < 15
13 | CC(C)c1n[nH]c(Br)c1-c1ccnc(NC2CCN(C)CC2)n1 [Example 179] | – | – | – | – | < 5 | < 0.1 | < 5 | < 1
14 | CC(C)c1n[nH]cc1-c1ccnc(N[C@H]2CCCc3ccccc32)n1 [Example 178] | – | – | – | – | < 10 | < 5 | ≥ 15 | < 15
15 | COc1cc(CNc2nccc(-c3c[nH]nc3C)n2)cc(OC)c1 [Example 133] | – | – | – | – | ≥ 15 | < 15 | ≥ 15 | < 15
16 | CCC(Nc1nccc(-c2c[nH]nc2C(C)C)n1)c1ccccc1 (stereo not shown) [Example 151] | – | – | – | – | < 1 | < 0.5 | < 5 | < 10
17 | Cc1n[nH]cc1-c1ccnc(NCc2ccccc2)n1 [Example 93] | – | – | – | – | < 10 | < 5 | < 15 | < 15
18 | CC(C)c1n[nH]cc1-c1ccnc(N[C@@H]2CCc3ccccc32)n1 [Example 176, (R)-Indan-1-yl-[4-(3-isopropyl-1H-pyrazol-4-yl)-pyrimidin-2-yl]-amine] | – | – | – | – | < 0.5 | < 0.05 | < 0.5 | < 1
19 | Cc1n[nH]cc1-c1ccnc(NCCC#N)n1 [Example 96] | – | – | – | – | < 15 | < 5 | < 15 | < 15

Row | SMILES | IC50 (hCDK1/B; Table 1) [µM] | IC50 (CDK4; Table 1, read-out: CDK4 HTRF) [µM] | IC50 (CDK2 cyA; [1]) [µM] | IC50 (p-pRb/S780; [2]) [µM] | IC50 (hCDK1/B; Table 2) [µM] | IC50 (CDK4; [3]) [µM] | IC50 (CDK2 cyA; [4]) [µM] | IC50 (p-pRb/S780; [5]) [µM]
20 | CC(C)c1n[nH]cc1-c1ccnc(NC2CCCCC2C)n1 (stereo not shown) [Example 160] | – | – | – | – | < 0.5 | < 0.1 | < 1 | < 5
21 | CC(C)c1n[nH]cc1-c1ccnc(NC2Cc3ccccc3C2)n1 [Example 170] | – | – | – | – | < 0.5 | < 0.05 | < 0.5 | < 5
22 | Cc1n[nH]cc1-c1ccnc(NCCCO)n1 [Example 121] | – | – | – | – | < 15 | < 5 | < 15 | < 15
23 | CC(C)c1[nH]ncc1-c1ccnc(NCCCNC2CCCCC2)c1 [Example 51] | ≥ 15 | < 5 | ≥ 15 | < 15 | – | – | – | –
24 | CC(C)c1[nH]ncc1-c1ccnc(NCCN2CCCC2)c1 [Example 17] | ≥ 15 | < 5 | ≥ 15 | < 15 | – | – | – | –
25 | CC(C)c1n[nH]cc1-c1ccnc(NC2CCC(C)(C)c3ccccc32)n1 (stereo not shown) [Example 188] | – | – | – | – | ≥ 15 | < 0.1 | ≥ 15 | < 5
26 | Cc1n[nH]cc1-c1ccnc(NCc2cccnc2)n1 [Example 127] | – | – | – | – | < 15 | < 10 | < 10 | < 15
27 | CC(C)c1n[nH]cc1-c1ccnc(NC2CCCCC2)n1 [Example 166] | – | – | – | – | < 0.05 | < 0.05 | < 0.05 | < 1
28 | CC(C)c1[nH]ncc1-c1ccnc(NCCN2CCOCC2)c1 [Example 32] | ≥ 15 | < 5 | < 10 | < 15 | – | – | – | –
29 | COc1ccc(CNc2nccc(-c3c[nH]nc3C)n2)cc1 [Example 100] | – | – | – | – | < 15 | < 5 | < 15 | < 15
30 | CC(C)c1n[nH]cc1-c1ccnc(NC2CN3CCC2CC3)n1 (stereo not shown) [Example 159] | – | – | – | – | < 0.5 | < 0.05 | < 5 | < 5
31 | Cc1n[nH]cc1-c1ccnc(NCc2ccc3c(c2)OCO3)n1 [Example 102] | – | – | – | – | < 10 | < 5 | < 10 | < 15
32 | Cc1n[nH]cc1-c1ccnc(NCc2ccncc2)n1 [Example 104] | – | – | – | – | < 15 | < 5 | < 15 | < 15
33 | CC(C)c1[nH]ncc1-c1ccnc(NCCCN(C)C)c1 [Example 16] | ≥ 15 | < 5 | ≥ 15 | < 15 | – | – | – | –
34 | Cc1n[nH]cc1-c1ccnc(NCCN2CCCC2)n1 [Example 109] | – | – | – | – | ≥ 15 | < 10 | ≥ 15 | < 15
35 | Cc1n[nH]cc1-c1ccnc(NCc2ccc(F)cc2)n1 [Example 95] | – | – | – | – | < 10 | < 5 | < 10 | < 15
36 | Cc1n[nH]cc1-c1ccnc(NCC2CC2)n1 [Example 124] | – | – | – | – | < 10 | < 5 | < 10 | < 15
37 | Cc1n[nH]cc1-c1ccnc(NCC2CCCCCC2)n1 [Example 105] | – | – | – | – | < 10 | < 5 | < 15 | < 15
